Assay results published in US20220119868A1, “PROFILING RNA-SMALL MOLECULE BINDING SITES WITH OLIGONUCLEOTIDES” (priority 2018, published 2022).

Experiments:
[1] = molecular target: RNA motif 5′UGU3′/3′G_A5′ (from RNA library C); test: In solution, fluorescence-based binding affinity assay
Protocol: Affinity of Selected RNA Motif-Small Molecule Interactions. The affinity of exemplar compounds that have inherent fluorescence was measured. […] . Binding affinities were confirmed using a label-free method, biolayer interferometry.
where n1 is the size of Population 1 (number of sequencing reads for a given RNA from RNA-seq analysis of the selected library), n2 is the size of Population 2 (number of sequencing reads for the same RNA from RNA-seq analysis of the starting library), p1 is the observed proportion of Population 1 (the number of reads for a given RNA from selected library/total number of reads), and p2 is the observed proportion for Population 2 (the number of reads for the same RNA in the starting library/total number of reads). Generation of Logos and DiffLogos: Zobs corresponding to the highest (enriched) 0.5% and lowest (discriminated against) 0.5% scores were analyzed to generate consensus sequences, or Logos. The resulting list of sequences were converted to position weight matrix (PWM) lists for each compound. “Enriched” and “discriminated” sequences were kept separate using JMP®, Version <13.2.1>. SAS Institute Inc., Cary, N.C., 1989-2007. The R package Difflogo,^16 which is part of Bioconductor, was utilized to create the sequence logos from PWM lists for each compound and visually compare the differences between them. Binding Affinity Measurements. Dissociation constants were determined using an in solution, fluorescence-based assay. […] Serial dilutions (1:2) of the small molecule were then completed in 1× Assay Buffer supplemented with 1 mM MgCl2. The solutions were incubated for 30 min at room temperature, transferred to a 96-well plate, and fluorescence intensity measured on a BioTek-FLx800 plate reader. The change in fluorescence intensity as a function of small molecule concentration was fit to a one site binding model per equation 3: […]
Effect of compounds on HCV replication. […] Cytotoxicity assays. […] Oligonucleotide profiling of target engagement in vitro. […] Primers can be found in Table 4. […] Inhibition of kinases. […] . Figure S7C).

[2] = test system: SL I site of HCV RNA in replicon cells; test: Oligonucleotide profiling of target engagement in cells by RT-qPCR; format: cell-based, Hepatitis C virus
From the text: Given these favorable results in vitro, the competitive cleaving approach was used to map cellular ligand binding sites. […] Previous approaches to map small molecule-RNA binding sites, such as Chemical Cross-Linking and Isolation by Pull-down (Chem-CLIP)59-61 and Small Molecule Nucleic Acid Profiling by Cleavage Applied to RNA (Ribo-SNAP)61, require the synthesis of derivatives of the lead molecules that allow them to cross-link or cleave and RNA target, respectively. […] Guan, L. and Disney, M. D. (2012). Recent advances in developing small molecules targeting RNA. ACS Chem. Biol. 7, 73-86. • 2. Thomas, J. R. and Hergenrother, P. J. (2008). Targeting RNA with small molecules. Chem. Rev. 108, 1171-1224. • 3. Blount, K. F. and Breaker, R. R. (2006). Riboswitches as antibacterial drug targets. Nat. Biotechnol. 24, 1558-1564. • 4. Tenson, T. and Mankin, A. (2006). Antibiotics and the ribosome. Mol. Microbiol. 59, 1664-1677. • 5. Schlunzen, F., Zarivach, R., Harms, J., Bashan, A., Tocilj, A., Albrecht, R., Yonath, A. and Franceschi, F. (2001). Structural basis for the interaction of antibiotics with the peptidyl transferase centre in eubacteria. Nature 413, 814-821. • 6. Hermann, T. (2016). Small molecules targeting viral rna. Wiley Interdiscip. Rev. RNA 7, 726-743. • 7. Ohgushi, M., Kuroki, S., Fukamachi, H., O'Reilly, L. A., Kuida, K., Strasser, A. and Yonehara, S. (2005). […]

Row | SMILES | Kd [1] [µM] | rescue of ASO-induced cleavage in cells ([2]; Control ASO complementary to a downstream site) | inhibition of ASO-induced cleavage in cells ([2]; antisense oligonucleotide overlapping the 8-binding site (SL I ASO))
1 | O=C(Nc1cccc(NC(=O)Nc2cc(C(=O)Nc3ccc(C4=NCCN4)cc3)ccc2C(=O)Nc2ccc(C3=NCCN3)cc2)c1)Nc1cc(C(=O)Nc2ccc(C3=NCCN3)cc2)ccc1C(=O)Nc1ccc(C2=NCCN2)cc1 [Compound 7] | 0.63 ± 0.036 | – | –
2 | O=C(Nc1ccc(C2=NCCN2)cc1)c1cc(C(=O)Nc2ccc(C3=NCCN3)cc2)cc(C(=O)Nc2ccc(C3=NCCN3)cc2)c1 [Compound 8] | – | does not rescue cleavage | inhibited cleavage
